Results published in PubChem BioAssay AID248 (DTP/NCI, 2004).
Where “and” joins values, the source holds several entries; their conditions need not be identical. Equal values may be shown once. Inconclusive results and toxic doses are left out. No stated cut-off is given here; in the data, active means T/C of 150% or more; inactive means T/C below 125%. Square brackets hold non-standard residues; d marks the D form. Peptide text beside a SMILES is read from it. ξ: configuration not given here. ξF = NC(Cc1ccccc1)C(=O)O

System: L1210 leukemia ip in BDF1 mice, survival T/C
Test: NCI In Vivo Anticancer Drug Screen. Data for tumor model L1210 Leukemia (intraperitoneal) in B6D2F1 (BDF1) mice
Settings: endpoint: mean survival time, higher = longer survival
Outline: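 Transplantable tumor model; survival measured in treated vs vehicle control mice. Value = treated/control.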

[1] = dose: 100.0 mg/kg/injection, schedule: Q01DX009 (ip), vehicle: saline with Tween-80
[2] = dose: 100.0 mg/kg/injection, schedule: Q04DX003 (ip), vehicle: saline with Tween-80
[3] = dose: 200.0 mg/kg/injection, schedule: Q01DX009 (ip), vehicle: saline with Tween-80
[4] = dose: 200.0 mg/kg/injection, schedule: Q04DX003 (ip), vehicle: saline with Tween-80
[5] = dose: 400.0 mg/kg/injection, schedule: Q01DX009 (ip), vehicle: saline with Tween-80
[6] = dose: 400.0 mg/kg/injection, schedule: Q04DX003 (ip), vehicle: saline with Tween-80
[7] = dose: 100.0 mg/kg/injection, schedule: Q01DX001 (ip), vehicle: saline
[8] = dose: 200.0 mg/kg/injection, schedule: Q01DX001 (ip), vehicle: saline
[9] = dose: 400.0 mg/kg/injection, schedule: Q01DX001 (ip), vehicle: saline
[10] = dose: 100.0 mg/kg/injection, schedule: Q01DX009 (ip), vehicle: Klucel (hydroxypropylcellulose) (HPC)
[11] = dose: 100.0 mg/kg/injection, schedule: Q04DX003 (ip), vehicle: Klucel (hydroxypropylcellulose) (HPC)
[12] = dose: 200.0 mg/kg/injection, schedule: Q01DX009 (ip), vehicle: Klucel (hydroxypropylcellulose) (HPC)
[13] = dose: 200.0 mg/kg/injection, schedule: Q04DX003 (ip), vehicle: Klucel (hydroxypropylcellulose) (HPC)
[14] = dose: 400.0 mg/kg/injection, schedule: Q01DX009 (ip), vehicle: Klucel (hydroxypropylcellulose) (HPC)
[15] = dose: 400.0 mg/kg/injection, schedule: Q04DX003 (ip), vehicle: Klucel (hydroxypropylcellulose) (HPC)
[16] = dose: 50.0 mg/kg/injection, schedule: Q01DX009 (ip), vehicle: Klucel (hydroxypropylcellulose) (HPC)
[17] = dose: 100.0 mg/kg/injection, schedule: Q04DX002 (ip), vehicle: Klucel (hydroxypropylcellulose) (HPC)
[18] = dose: 200.0 mg/kg/injection, schedule: Q04DX002 (ip), vehicle: Klucel (hydroxypropylcellulose) (HPC)
[19] = dose: 100.0 mg/kg/injection, schedule: Q01DX009 (ip), vehicle: saline
[20] = dose: 200.0 mg/kg/injection, schedule: Q01DX009 (ip), vehicle: saline
[21] = dose: 50.0 mg/kg/injection, schedule: Q01DX001 (ip), vehicle: saline

Measured: T/C

CNC(=O)Nc1ccc(C(=O)NCC(=O)O)cc1
inactive: [1] 100 % of control and 105 % of control | dose: 100.0 mg/kg/injection, schedule: Q04DX002 (ip), vehicle: saline 100 % of control and 92 % of control | [2] 98 % of control | [3] 93 % of control and 100 % of control | dose: 200.0 mg/kg/injection, schedule: Q04DX002 (ip), vehicle: saline 100 % of control and 91 % of control | [4] 91 % of control | [5] 105 % of control and 110 % of control | dose: 400.0 mg/kg/injection, schedule: Q04DX002 (ip), vehicle: saline 95 % of control and 96 % of control | [6] 98 % of control

CCOC(=O)C(COC)C(C(=O)CC)C(=O)OCC (stereo not given)
inactive: dose: 100.0 mg/kg/injection, schedule: Q01DX001 (ip), vehicle: other 102 % of control | dose: 200.0 mg/kg/injection, schedule: Q01DX001 (ip), vehicle: other 89 % of control | dose: 400.0 mg/kg/injection, schedule: Q01DX001 (ip), vehicle: other 96 % of control

CCc1c(/C=C2/OC(=O)NC2=O)[nH]c(=S)[nH]c1=O
inactive: [2] 97 % of control | [4] 96 % of control | [6] 96 % of control

COc1cc(O)c2c(c1)C(=O)c1cc3c(c(O)c1C2=O)C(OC1OC(C)C(O)C(O)C1OC)C(OC)C(C)(O)C3=O (stereo not given)
inactive: [7] 92 % of control | [8] 103 % of control | [9] 97 % of control

O=c1[nH][nH]c(=O)c2[nH]cnc12
inactive: [10] 107 % of control | [11] 104 % of control | [12] 103 % of control | [13] 104 % of control | [14] 117 % of control | [15] 117 % of control

Brc1ncnc2nc[nH]c12
inactive: dose: 62.5 mg/kg/injection, schedule: Q01DX Z (ip), vehicle: carboxymethylcellulose (CMC) 97 % of control | dose: 75.0 mg/kg/injection, schedule: Q01DX Z (ip), vehicle: carboxymethylcellulose (CMC) 120 % of control | dose: 100.0 mg/kg/injection, schedule: Q01DX Z (ip), vehicle: methylcellulose (MC) 111 % of control | dose: 125.0 mg/kg/injection, schedule: Q01DX Z (ip), vehicle: carboxymethylcellulose (CMC) 121 % of control | dose: 200.0 mg/kg/injection, schedule: Q01DX Z (ip), vehicle: methylcellulose (MC) 120 % of control

NCC(=O)Oc1c(Cl)c(Cl)c(Cl)c(Cl)c1Cl
inactive: dose: 75.0 mg/kg/injection, schedule: Q01DX001 (ip), vehicle: saline 104 % of control

O=C(Nc1ccccc1F)c1ccccc1
inactive: [10] 97 % of control | [11] 96 % of control | [12] 87 % of control | [13] 98 % of control | [14] 89 % of control | [15] 104 % of control

CC(C)(c1ccc(OCCO)cc1)c1ccc(OCCO)cc1
inactive: [1] 97 % of control | [3] 98 % of control | [5] 93 % of control

OC(COc1cccc2ccccc12)CN1CC=C(c2ccccc2)CC1 (stereo not given)
inactive: dose: 12.5 mg/kg/injection, schedule: Q01DX009 (ip), vehicle: Klucel (hydroxypropylcellulose) (HPC) 103 % of control | dose: 25.0 mg/kg/injection, schedule: Q01DX009 (ip), vehicle: Klucel (hydroxypropylcellulose) (HPC) 100 % of control | [16] 101 % of control | [10] 100 % of control

CC(C)CP(=S)(CC(C)C)CC(C)C
inactive: dose: 100.0 mg/kg/injection, schedule: Q01DX001 (ip), vehicle: saline with Tween-80 103 % of control | dose: 200.0 mg/kg/injection, schedule: Q01DX001 (ip), vehicle: saline with Tween-80 103 % of control | dose: 400.0 mg/kg/injection, schedule: Q01DX001 (ip), vehicle: saline with Tween-80 89 % of control

O=C1CC[C@H](NC(=O)OCc2ccccc2)C(=O)O1
inactive: [2] 100 % of control | [4] 100 % of control | [6] 97 % of control

O=C1C=Cc2ccccc2/C1=C/c1nc(-c2ccc(Cl)cc2)oc1O
inactive: [17] 95 % of control | [18] 91 % of control

c1ccc(C2C(CN3CCCCCC3)C2c2ccccc2)cc1 (stereo not given)
inactive: dose: 12.5 mg/kg/injection, schedule: Q04DX002 (ip), vehicle: Klucel (hydroxypropylcellulose) (HPC) 88 % of control | dose: 25.0 mg/kg/injection, schedule: Q04DX002 (ip), vehicle: Klucel (hydroxypropylcellulose) (HPC) 95 % of control and 98 % of control | dose: 50.0 mg/kg/injection, schedule: Q04DX002 (ip), vehicle: Klucel (hydroxypropylcellulose) (HPC) 98 % of control and 101 % of control and 91 % of control | [17] 92 % of control

O=C(Nc1cccc(C2=NCCN2)c1)c1ccc(C(=O)Nc2cccc(C3=NCCN3)c2)cc1
inactive: dose: 2.5 mg/kg/injection, schedule: Q01DX Z (ip), vehicle: saline 95 % of control | dose: 5.0 mg/kg/injection, schedule: Q01DX Z (ip), vehicle: saline 111 % of control

C/C=C/C=C/CC
inactive: [7] 109 % of control | [8] 102 % of control | [9] 109 % of control

O=c1c(O)cccc2cc(O)c(O)c(O)c12
inactive: dose: 12.5 mg/kg/injection, schedule: Q01DX009 (ip), vehicle: saline 100 % of control | dose: 25.0 mg/kg/injection, schedule: Q01DX009 (ip), vehicle: saline 94 % of control and 97 % of control and 107 % of control | dose: 50.0 mg/kg/injection, schedule: Q01DX009 (ip), vehicle: saline 95 % of control and 101 % of control (2×) | [19] 101 % of control | [20] 94 % of control and 92 % of control

CC(=O)[O][Pb]([O]C(C)=O)([O]C(C)=O)[c]1ccccc1
inactive: dose: 6.25 mg/kg/injection, schedule: Q01DX009 (ip), vehicle: gum acacia 102 % of control | dose: 12.5 mg/kg/injection, schedule: Q01DX009 (ip), vehicle: gum acacia 98 % of control | dose: 25.0 mg/kg/injection, schedule: Q01DX009 (ip), vehicle: gum acacia 95 % of control | dose: 50.0 mg/kg/injection, schedule: Q01DX009 (ip), vehicle: gum acacia 103 % of control | [7] 97 % of control | dose: 100.0 mg/kg/injection, schedule: Q04DX002 (ip), vehicle: gum acacia 107 % of control | [8] 103 % of control | dose: 200.0 mg/kg/injection, schedule: Q04DX002 (ip), vehicle: gum acacia 103 % of control

CN(C)c1ccc(/C=C\c2cc(=O)[nH]c3ccccc23)cc1
inactive: [16] 100 % of control | [10] 102 % of control | [12] 97 % of control | [14] 97 % of control

O=[N+]([O-])c1cccc2cccnc12
inactive: [21] 107 % of control | dose: 50.0 mg/kg/injection, schedule: Q01DX009 (ip), vehicle: saline with Tween-80 95 % of control | [7] 107 % of control | [1] 93 % of control

NCC(=O)NCC(=O)NC(Cc1ccccc1)C(=O)O (stereo not drawn) (H-Gly-Gly-[ξF]-OH)
inactive: [19] 109 % of control | dose: 100.0 mg/kg/injection, schedule: Q04DX003 (ip), vehicle: saline 110 % of control | [20] 107 % of control | dose: 200.0 mg/kg/injection, schedule: Q04DX003 (ip), vehicle: saline 100 % of control | dose: 400.0 mg/kg/injection, schedule: Q01DX009 (ip), vehicle: saline 101 % of control | dose: 400.0 mg/kg/injection, schedule: Q04DX003 (ip), vehicle: saline 101 % of control

CC1(CC(=O)O)CCCCC1CC(=O)O (stereo not given)
inactive: [17] 110 % of control | [18] 103 % of control | dose: 400.0 mg/kg/injection, schedule: Q04DX002 (ip), vehicle: Klucel (hydroxypropylcellulose) (HPC) 97 % of control

CC1=CC(=O)C=CC1=Nc1cc(Cl)c(O)c(Cl)c1
inactive: [21] 101 % of control | [7] 95 % of control

CCOC(=O)C(=N\Nc1ccccc1OC)/C(C)=N\NC(N)=S
inactive: dose: 75.0 mg/kg/injection, schedule: Q01DX001 (ip), vehicle: acetone 93 % of control | dose: 150.0 mg/kg/injection, schedule: Q01DX001 (ip), vehicle: acetone 90 % of control | dose: 150.0 mg/kg/injection, schedule: Q01DX001 (ip), vehicle: saline 94 % of control
